Test results from paper PMC7191905, “Synthesis and biological evaluation of new 3(2H)-pyridazinone derivatives as non-toxic anti-proliferative compounds against human colon carcinoma HCT116 cells” (Journal of Enzyme Inhibition and Medicinal Chemistry, 2020).
Values after ≈ are worked out from the molar mass of the structure shown. Values joined by “and” are separate entries in the source; they are usually repeats but may differ in a detail not shown here. Equal values may be shown once. Read-outs that look alike come from different tables or passages of the source.

What was measured:
HCT116 cells [1] = assay: Wound healing paradigm (spontaneous migration of HCT116 cells); format: cell-based, human; settings: compounds at their IC50 (VIe 3.09 µg/mL, VIk 2.73 µg/mL), 48 h after lesion of cell monolayer
Procedure: The detailed protocol related to wound healing experimental model was described in our previous article.
Finally, considering their potencies in reducing HCT116 cell viability, compounds VIe and VIk were further studied in order to evaluate their effects on the spontaneous migration of HCT116 cells, through the wound healing paradigm. In this experiment, HCT116 cells were treated with compounds VIe and VIk at their respective IC50 values. The spontaneous migration of HCT116 cells was monitored in the 48 h following the experimental lesion of cell monolayer. The null effects on sponstaneous migration (Figure 6) rule out any involvement of the tested compounds in altering the invasion capacity of human colon cancer cells.

HCT116 cells [2] = assay: MTT viability of HCT116 cells in basal conditions; format: cell-based, human; settings: for IC50: Homo sapiens
Procedure: (§1) HCT116 cell line (ATCC® CCL-247™) was cultured in DMEM (Euroclone) supplemented with 10% (v/v) heat-inactivated foetal bovine serum and 1.2% (v/v) penicillin G/streptomycin in 75 cm^2 tissue culture flask (n=5 individual culture flasks for each condition) as previously reported with or without serotonin treatment.
(§2) In the same condition, the kynurenic acid (KA) extracellular level was determined through a validated high performance liquid chromatography (HPLC)-fluorimetric method. To assess the cytotoxicity of synthesised compounds (VIa–o), a viability assay was performed on 96 microwell plates, using 3-(4,5-dimethylthiazol-2-yl)-2,5-diphenyltetrazolium bromide (MTT) test. Cells were incubated with compounds (10 µg/mL) for 24 h. An aliquot of 10 µL of MTT (5 mg/mL) was added to each well and incubated for 3 h. The viability of HCT116 cell line was evaluated both in basal conditions and after challenging with serotonin (5-HT) at 1 ng/mL. The anti-proliferative effects were compared to that induced by daunorubicin (0.1–20 µg/mL), used as reference drug.
Considering the effects induced by all compounds on HCT116 viability and KA production, compounds VIc, VIe and VIk were further assayed in order to deepen our knowledge about their anti-proliferative effects, in basal conditions. Specifically, HCT116 cells were stimulated with the aforementioned compounds, in a wider concentration range (0.1–20 µg/mL), with respect to the initial test. Additionally, the anti-proliferative effects induced by these compounds were compared with that of daunorubicin, used as anti-tumoral reference drug in the same concentration range.

[3] = test system: kynurenic acid (KA) release from colon cancer HCT116 cells; assay: Extracellular kynurenic acid (KA) level of 5-HT-stimulated HCT116 cells (HPLC-fluorimetric); format: cell-based, human; settings: for Effect on 5-HT-induced KA depletion: compounds 10 µg/mL, 5-HT 1 ng/mL, vs 5-HT group
Procedure: as §1, §2
Furthermore, compounds were assayed for evaluating modulatory effects on the extracellular level of KA, one of the two main kynurenine metabolites. Kynurenic acid was reported to be produced in multiple tissues, including brain and peripheral organs, although pharmacokinetic studies excluded any possibility of the peripheral pool to cross blood-brain barrier. In the brain, the kynurenine-derived kynurenic acid was described as a reliable marker of neuroprotection[28]^,[29], whereas it seems to be involved in inflammatory response at the peripheral level. Kynurenic acid was also described as an anti-proliferative factor towards colon, renal, and glioma cells. Specifically, this marker was considered as a potential chemopreventive agent against colon cancer[32]^,[33]. […] They were able in potentiating 5-HT-induced KA depletion, as well.

[4] = HCT-116, basal conditions, concentration range 0.1–20 µg/mL, MTT test, read-out: IC50 (HCT116 cell viability)

SMILES | melting point | also measured
COc1ccc(-c2ccc(=O)n(CC(=O)NN=Cc3ccc(O)cc3)n2)cc1F [VIn, N’-(4-hydroxybenzylidene)-2–(3-(3-fluoro-4-methoxyphenyl)-6-oxopyridazin-1(6H)-yl)acetohydrazide] | 251 °C | 
COc1ccc(-c2ccc(=O)n(CC(=O)NN=Cc3ccccc3C)n2)cc1F [VIe, N’-(2-methylbenzylidene)-2–(3-(3-fluoro-4-methoxyphenyl)-6-oxopyridazin-1(6H)-yl)acetohydrazide] | 210 °C | Effect on spontaneous migration of HCT116 cells (HCT116 cells [1]): null effects; IC50 (HCT116 cells [2]; [4]): 3.09 µg/mL (≈ 7.83 µM)
COc1ccc(-c2ccc(=O)n(CC(=O)NN=Cc3ccc([N+](=O)[O-])cc3)n2)cc1F [VIi, N’-(4-nitrobenzylidene)-2–(3-(3-fluoro-4-methoxyphenyl)-6-oxopyridazin-1(6H)-yl)acetohydrazide] | 265 °C | 
NCCc1c[nH]c2ccc(O)cc12 [Compound 5-HT, serotonin, reference compound] |  | Effect of 5-HT on HCT116 cell viability (HCT116 cells [2]; 5-HT 10 pg/mL – 1 µg/mL, MTT test): increased in a concentration-dependent manner
COc1ccc(-c2ccc(=O)n(CC(=O)NN=Cc3ccccc3Br)n2)cc1F [VIk, N’-(2-bromobenzylidene)-2–(3-(3-fluoro-4-methoxyphenyl)-6-oxopyridazin-1(6H)-yl)acetohydrazide] | 189 °C | Effect on spontaneous migration of HCT116 cells (HCT116 cells [1]): null effects; IC50 (HCT116 cells [2]; [4]): 2.73 µg/mL (≈ 5.94 µM)
COc1ccc(-c2ccc(=O)n(CC(=O)NN=Cc3ccc(C)cc3)n2)cc1F [VIg, N’-(4-methylbenzylidene)-2–(3-(3-fluoro-4-methoxyphenyl)-6-oxopyridazin-1(6H)-yl)acetohydrazide] | 220 °C | 
COc1ccc(-c2ccc(=O)n(CC(=O)NN=Cc3ccccc3F)n2)cc1F [VId, N’-(2-fluorobenzylidene)-2–(3-(3-fluoro-4-methoxyphenyl)-6-oxopyridazin-1(6H)-yl)acetohydrazide] | 222 °C and 224 °C | 
COc1ccc(-c2ccc(=O)n(CC(=O)NN=Cc3ccc(F)cc3)n2)cc1F [VIb, N’-(4-fluorobenzylidene)-2–(3-(3-fluoro-4-methoxyphenyl)-6-oxopyridazin-1(6H)-yl)acetohydrazide] | 238 °C | Effect on 5-HT-induced KA depletion [3]: failed to prevent the inhibition of KA level
COc1ccc(-c2ccc(=O)n(CC(=O)NN=Cc3ccc(C(C)C)cc3)n2)cc1F [VIj, N’-(4-isopropylbenzylidene)-2–(3-(3-fluoro-4-methoxyphenyl)-6-oxopyridazin-1(6H)-yl)acetohydrazide] | 164 °C | 
COc1ccc(C=NNC(=O)Cn2nc(-c3ccc(OC)c(F)c3)ccc2=O)cc1 [VIh, N’-(4-methoxybenzylidene)-2–(3-(3-fluoro-4-methoxyphenyl)-6-oxopyridazin-1(6H)-yl)acetohydrazide] | 207 °C | 
COc1ccc(-c2ccc(=O)n(CC(=O)NN=Cc3ccc(Cl)cc3Cl)n2)cc1F [VIo, N’-(2,4-dichlorobenzylidene)-2–(3-(3-fluoro-4-methoxyphenyl)-6-oxopyridazin-1(6H)-yl)acetohydrazide] | 229 °C | 
COc1ccc(-c2ccc(=O)n(CC(=O)NN=Cc3ccccc3)n2)cc1F [VIa, N’-benzylidene-2-(3-(3-fluoro-4-methoxyphenyl)-6-oxopyridazin-1(6H)-yl)acetohydrazide] | 132 °C | Effect on 5-HT-induced KA depletion [3]: failed to prevent the inhibition of KA level
COc1cccc2c1C(=O)c1c(O)c3c(c(O)c1C2=O)C[C@@](O)(C(C)=O)C[C@@H]3O[C@H]1C[C@H](N)[C@H](O)[C@H](C)O1 [daunorubicin, reference compound] |  | IC50 (HCT116 cells [2]; HCT-116, read-out: IC50 (HCT116 cell viability)): 1.39 µg/mL (≈ 2.63 µM)
COc1ccc(-c2ccc(=O)n(CC(=O)NN=Cc3ccc(C(F)(F)F)cc3)n2)cc1F [VIc, N’-(4-trifluoromethylbenzylidene)-2–(3-(3-fluoro-4-methoxyphenyl)-6-oxopyridazin-1(6H)-yl)acetohydrazide] | 252 °C | KA level compared to basal condition (CTR group) ([3]; compound 10 µg/mL, 5-HT-stimulated HCT116 cells): even higher compared to basal condition; Effect on 5-HT-induced KA depletion [3]: able to blunt 5-HT-induced KA depletion; IC50 (HCT116 cells [2]; [4]): 15 µg/mL (≈ 33.5 µM); IC50 fold higher compared to daunorubicin (HCT116 cells [2]; basal conditions, HCT116 viability): at least 10 fold
COc1ccc(-c2ccc(=O)n(CC(=O)NN=Cc3ccc(Br)cc3)n2)cc1F [VIm, N’-(4-bromobenzylidene)-2–(3-(3-fluoro-4-methoxyphenyl)-6-oxopyridazin-1(6H)-yl)acetohydrazide] | 256 °C | 
COc1ccc(-c2ccc(=O)n(CC(=O)NN=Cc3ccccc3OC)n2)cc1F [VIf, N’-(2-methoxybenzylidene)-2–(3-(3-fluoro-4-methoxyphenyl)-6-oxopyridazin-1(6H)-yl)acetohydrazide] | 214 °C | 
